According to ChEMBL document CHEMBL1144396 (J Med Chem, 2005):

Each compound was assayed against T1, Equilibrative nucleoside transporter 1 (Homo sapiens, UniProt Q99808) (assay: Inhibition of [3H]NBTI binding to equilibrative nucleoside transport protein 1 (ENT1) in human erythrocyte membranes).
T1 sequence (Q99808 whole entry): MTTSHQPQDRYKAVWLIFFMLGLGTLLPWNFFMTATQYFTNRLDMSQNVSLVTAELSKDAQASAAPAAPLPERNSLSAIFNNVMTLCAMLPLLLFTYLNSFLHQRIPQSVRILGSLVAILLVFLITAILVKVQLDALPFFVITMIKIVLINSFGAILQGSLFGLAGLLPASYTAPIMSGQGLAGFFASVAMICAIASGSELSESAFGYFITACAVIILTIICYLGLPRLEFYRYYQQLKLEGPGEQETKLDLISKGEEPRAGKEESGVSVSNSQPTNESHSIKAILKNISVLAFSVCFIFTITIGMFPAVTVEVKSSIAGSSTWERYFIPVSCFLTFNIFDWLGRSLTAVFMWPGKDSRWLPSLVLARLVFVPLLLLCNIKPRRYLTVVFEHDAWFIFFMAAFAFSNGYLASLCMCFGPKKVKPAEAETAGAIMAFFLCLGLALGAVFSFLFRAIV
Type: cell membranes

Row | Structure (SMILES) | Ki [nM] | Inhibition [%]
1 | CCCNc1nc2c(NC3CCCC3)ncnc2n1[C@@H]1O[C@H](CO)[C@@H](O)[C@H]1O | 97 | –
2 | O=[N+]([O-])c1ccc(CSc2ncnc3c2nc(N2CCCC2)n3Cc2ccccc2)cc1 | 1520 | –
3 | O=[N+]([O-])c1ccc(CSc2ncnc3c2nc(N2CCOCC2)n3Cc2ccccc2)cc1 | 51 | –
4 | CCCCCCNc1nc2c(SCc3ccccc3)ncnc2n1C1O[C@H](CO)[C@@H](O)[C@H]1O (stereo partly drawn) | 3.7 | –
5 | CCC(C)CNc1nc2c(SCc3ccccc3)ncnc2n1C1O[C@H](CO)[C@@H](O)[C@H]1O (stereo partly drawn) | 3.6 | –
6 | OC[C@H]1O[C@@H](n2cnc3c(SCc4ccccc4)ncnc32)[C@H](O)[C@@H]1O [6-BENZYLTHIOINOSINE] | 53 | –
7 | OC[C@H]1O[C@@H](n2cnc3c(NC4CCCC4)ncnc32)[C@H](O)[C@@H]1O [N6-CYCLOPENTYLADENOSINE] | 1100 | –

Now from value to compound:

Row | Ki [nM] | Inhibition [%] | Structure (SMILES)
8 | 3 | – | OC[C@H]1OC(n2c(NC3CC3)nc3c(SCc4ccccc4)ncnc32)[C@H](O)[C@@H]1O (stereo partly drawn)
9 | 5.4 | – | CCCCNc1nc2c(SCc3ccccc3)ncnc2n1C1O[C@H](CO)[C@@H](O)[C@H]1O (stereo partly drawn)
10 | 0.94 | – | OC[C@H]1OC(n2c(NC3CCCCC3)nc3c(SCc4ccccc4)ncnc32)[C@H](O)[C@@H]1O (stereo partly drawn)
11 | 744 | – | OC[C@H]1OC(n2c(N3CCCCC3)nc3c(SCc4ccccc4)ncnc32)[C@H](O)[C@@H]1O (stereo partly drawn)
12 | 410 | – | OC[C@H]1OC(n2c(N3CCCC3)nc3c(SCc4ccccc4)ncnc32)[C@H](O)[C@@H]1O (stereo partly drawn)
13 | 9.5 | – | CCNc1nc2c(SCc3ccccc3)ncnc2n1C1O[C@H](CO)[C@@H](O)[C@H]1O (stereo partly drawn)
14 | 5.3 | – | CCCNc1nc2c(SCc3ccccc3)ncnc2n1C1O[C@H](CO)[C@@H](O)[C@H]1O (stereo partly drawn)
15 | 28 | – | CNc1nc2c(SCc3ccccc3)ncnc2n1C1O[C@H](CO)[C@@H](O)[C@H]1O (stereo partly drawn)
16 | 2.3 | – | CCCCCNc1nc2c(SCc3ccccc3)ncnc2n1C1O[C@H](CO)[C@@H](O)[C@H]1O (stereo partly drawn)
17 | 0.64 | – | OC[C@H]1OC(n2c(NC3CCCC3)nc3c(SCc4ccccc4)ncnc32)[C@H](O)[C@@H]1O (stereo partly drawn)
18 | – | 33 | OC[C@H]1OC(n2c(N3CCOCC3)nc3c(SCc4ccccc4)ncnc32)[C@H](O)[C@@H]1O (stereo partly drawn)
